# Measurements: ChEMBL document CHEMBL1157316, “Resin glycosides from the flowers of Ipomoea murucoides” (2006)
# Test system: HEp-2
# Test: Cytotoxicity against human Hep2 cells after 72 hrs by SRB method
# Assay type: functional
# Details: HEp-2, 72 h, read-out: ED50 (the source's name)
row,Compound,EC50 [µg/mL]
1,CCCCC[C@H]1CCCCCCCCCC(=O)O[C@H]2[C@H](O[C@H]3[C@H](O1)O[C@H](C)[C@H](O)[C@@H]3O)O[C@@H](C)[C@H](O[C@@H]1O[C@@H](C)[C@H](O[C@@H]3O[C@@H](C)[C@H](OC(=O)C(C)C)[C@@H](O)[C@H]3O)[C@@H](O[C@@H]3O[C@@H](C)[C@H](O)[C@@H](O)[C@H]3O)[C@H]1OC(=O)[C@@H](C)CC)[C@H]2O [MURUCOIDIN II],> 20
2,CCCCC[C@H]1CCCCCCCCCC(=O)O[C@H]2[C@H](O[C@H]3[C@H](O1)O[C@H](C)[C@H](O)[C@@H]3O)O[C@@H](C)[C@H](O[C@@H]1O[C@@H](C)[C@H](O[C@@H]3O[C@@H](C)[C@H](OC(=O)[C@@H](C)CC)[C@@H](O)[C@H]3O)[C@@H](O[C@@H]3O[C@H](CO)[C@@H](O)[C@H](O)[C@H]3O)[C@H]1OC(=O)[C@@H](C)CC)[C@H]2O [MURUCOIDIN IV],4
3,CC[C@]1(O)C[C@@H]2CN(CCc3c([nH]c4ccccc34)[C@@](C(=O)OC)(c3cc4c(cc3OC)N(C)[C@H]3[C@@](O)(C(=O)OC)[C@H](OC(C)=O)[C@]5(CC)C=CCN6CC[C@]43[C@@H]65)C2)C1 [VINBLASTINE],0.001
4,CCCCC[C@H]1CCCCCCCCCC(=O)O[C@H]2[C@H](O[C@H]3[C@H](O1)O[C@H](C)[C@H](O)[C@@H]3O)O[C@@H](C)[C@H](O[C@@H]1O[C@@H](C)[C@H](O[C@@H]3O[C@@H](C)[C@H](O)[C@@H](O)[C@H]3O)[C@@H](O[C@@H]3O[C@@H](C)[C@H](O)[C@@H](O)[C@H]3O)[C@H]1OC(=O)[C@@H](C)CC)[C@H]2O [MURUCOIDIN I],> 20
5,CCCCC[C@H]1CCCCCCCCCC(=O)O[C@H]2[C@@H](O)[C@H](O[C@H]3[C@H](O1)O[C@H](C)[C@H](O)[C@@H]3O)O[C@@H](C)[C@@H]2O[C@@H]1O[C@@H](C)[C@H](O[C@@H]2O[C@@H](C)[C@H](OC(=O)[C@@H](C)CC)[C@@H](O)[C@H]2O)[C@@H](O[C@@H]2O[C@@H](C)[C@H](O)[C@@H](O)[C@H]2O)[C@H]1OC(=O)[C@@H](C)CC [STOLONIFERIN I],> 20
6,CCCCC[C@H]1CCCCCCCCCC(=O)O[C@H]2[C@H](O[C@H]3[C@H](O1)O[C@H](C)[C@H](O)[C@@H]3O)O[C@@H](C)[C@H](O[C@@H]1O[C@@H](C)[C@H](O[C@@H]3O[C@@H](C)[C@H](OC(=O)[C@@H](C)CC)[C@@H](O)[C@H]3O)[C@@H](O[C@@H]3O[C@@H](C)[C@H](O)[C@@H](O)[C@H]3O)[C@H]1OC(=O)[C@@H](C)CC)[C@H]2O [MURUCOIDIN III],> 20
7,CCCCC[C@H]1CCCCCCCCCC(=O)O[C@H]2[C@@H](O)[C@H](O[C@H]3[C@H](O1)O[C@H](C)[C@H](O)[C@@H]3O)O[C@@H](C)[C@@H]2O[C@@H]1O[C@@H](C)[C@H](O[C@@H]2O[C@@H](C)[C@H](OC(=O)[C@@H](C)CC)[C@@H](O)[C@H]2O)[C@@H](O[C@@H]2O[C@H](CO)[C@@H](O)[C@H](O)[C@H]2O)[C@H]1OC(=O)[C@@H](C)CC [MURUCOIDIN V],> 20

# Test system: KB
# Test: Cytotoxicity against human KB cells after 72 hrs by SRB method
# Assay type: functional
# Details: read-out: ED50 (the source's name)
row,Compound,EC50 [µg/mL]
1,CC[C@]1(O)C[C@@H]2CN(CCc3c([nH]c4ccccc34)[C@@](C(=O)OC)(c3cc4c(cc3OC)N(C)[C@H]3[C@@](O)(C(=O)OC)[C@H](OC(C)=O)[C@]5(CC)C=CCN6CC[C@]43[C@@H]65)C2)C1 [VINBLASTINE],0.05
